Reference: US9833510B2, “Modified release solid or semi-solid dosage forms” (Johnson & Johnson Consumer Inc., priority 2007, dated 2017)
Where a name gives a salt, the structure may show the parent alone.

Experiments:
[1] = typical duration of action (period of therapeutic effect) of an immediate release dose, from product labeling; format: in vivo; conditions: for ATDAIRD (average therapeutic duration of action of an effective immediate release dose): average of typical duration range; for ATDAIRD: as restated, unit not given
Text: As used herein, “ATDAIRD” shall mean the average therapeutic duration of action of an effective immediate release dose” of a particular active ingredient. […] The therapeutic duration of action of a particular active ingredient can readily be determined from the dosing instructions in the labeling for immediate release products containing that particular active ingredient.

[2] = background statement; typically administered every 2 to 4 hours; cited from earlier work

SMILES | ATDAIRD (average therapeutic duration of action of an effective immediate release dose) [1] [h] | ATDAIRD [1] | therapeutically effective plasma concentration (duration) [2]
CC(C)Cc1ccc(C(C)C(=O)O)cc1 (stereo not shown) [ibuprofen, 2-(4-isobutylphenyl)-propionic acid] | 5 |  | 
CN[C@@H](C)[C@@H](O)c1ccccc1 [psuedoephedrine] |  | about 3 | 
CNC[C@H](O)c1cccc(O)c1 [phenylephrine, benzynemethanol, 3-hydroxy-α-[(methylamino)methyl]] | 3 | about 3 | 
CC(C(=O)O)c1cccc(C(=O)c2ccccc2)c1 (stereo not shown) [ketoprofen] | 5 |  | 
CNC[C@H](O)c1cccc(O)c1 [phenylephrine hydrochloride] |  |  | about 2.5 hours
COc1ccc2cc([C@H](C)C(=O)O)ccc2c1 [naproxen] | 10 |  | 
